Reference: patent publication US20220402867A1, “SULFO-SUBSTITUTED BIARYL COMPOUND OR SALT THEREOF, PREPARATION METHOD THEREFOR, AND USE THEREOF” (Shanghai Litedd Co., Ltd., priority 2019, published 2022)
pEC50: −log10 of the molar value. Like-named read-outs stand apart in the source and are kept apart here.

Assays:
[1] = target: T1, RORγt (RORγ-LBD chimeric receptor) (Homo sapiens, UniProt P51449); assay: Luciferase reporter gene assay of RORγt agonistic activity in HEK293T cells; assay type: cell-based; parameters: Emax: dose or concentration left out as unconfirmed; settings: for pEC50: HEK293T, GAL4 luciferase reporter, read-out: EC50; for Emax: HEK-293T
T1 construct: host or cells: HEK293T
T1 sequence (P51449 269-508 limits assumed): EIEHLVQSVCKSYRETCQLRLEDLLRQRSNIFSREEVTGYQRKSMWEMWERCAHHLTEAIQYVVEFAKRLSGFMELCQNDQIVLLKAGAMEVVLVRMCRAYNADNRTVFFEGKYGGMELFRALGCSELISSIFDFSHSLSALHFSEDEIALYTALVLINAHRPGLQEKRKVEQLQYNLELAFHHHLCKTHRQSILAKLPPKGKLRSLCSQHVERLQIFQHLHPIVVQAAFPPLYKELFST
In short: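 HEK293T cells co-transfected with GAL4-RORγ-LBD (pBIND) and GAL4-driven luciferase reporter (pGL4.35), then treated with compounds (10-point 3-fold series; 10 mM top DMSO stock). Luminescence (Steady-Glo) normalised to positive and vehicle controls as % activity; EC50 by log-concentration fit.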

human PBMC (Th17 cells) = assay: Th17 differentiation and IL-17 secretion in human PBMC; assay type: cell-based; settings: IL-17 ELISA after 48 hours; for Emax: maximum activation rate
Method: Test procedure: PBMC cells were first thawed and plated, and then stimulated with stimulating factors (anti-hCD28: 5 μg/mL; rhTGF-β1: 5 ng/mL; rhIL-6: 20 ng/mL; rhIL-23: 10 ng/Ml) to differentiate to Th17, while adding different concentrations of compounds. All test compounds were serially diluted at 3-fold dilution with DMSO, with 8 serial dilutions starting from the maximum concentration 3 μM. The supermatants were collected after 48 hours for IL-17 ELISA detection, and compared with the solvent group, to determine the activation rate of the compounds on Th17 cells to secrete IL-17. EC50 values were fitted with Graphad8.0, and the TOP values fitted by the software was Emax %.

[2] = Pharmacokinetic (PK) assay in mice; assay type: in vivo; settings: CD-1 mice; for AUC(0-t) / Cmax / half-life / Vd / bioavailability: mouse, plasma; for Vd: read-out: Vss; for bioavailability: Po 5 mg/kg vs IV 1 mg/kg
In short: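 CD-1 mice (3 per group) were dosed IV at 1 mg/kg in 5% DMSO/40% PEG400/55% (20% 3-CD) or by oral gavage at 5 mg/kg in DMSO/1% methylcellulose (1:99). Saphenous blood was sampled from 0 to 24 h into EDTA-K2 tubes for plasma. Plasma levels were measured by UPLC-MS/MS, and PK parameters were calculated from them.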

| Structure (SMILES) | pEC50 [1] | Emax [1] | pEC50 (human PBMC (Th17 cells)) | Emax (human PBMC (Th17 cells)) | CL_obs ([2]; IV 1 mg/kg, values marked **) | AUC(0-t) ([2]; IV 1 mg/kg) | Cmax ([2]; IV 1 mg/kg) | half-life ([2]; IV 1 mg/kg) | Vd ([2]; IV 1 mg/kg, values marked *) | bioavailability [2] | AUC(0-t) ([2]; Po 5 mg/kg) | Cmax ([2]; Po 5 mg/kg) | half-life ([2]; Po 5 mg/kg) | CL_obs ([2]; IV 1 mg/kg) | Vd ([2]; IV 1 mg/kg) |
| --- | --- | --- | --- | --- | --- | --- | --- | --- | --- | --- | --- | --- | --- | --- | --- |
| CCS(=O)(=O)c1ccc(C(COC)C(=O)Nc2cc(Cl)c(-c3ccc(S(=O)(=O)C4CC4)cc3)c(Cl)c2)cc1 (stereo not shown) [Example 16, N-(2,6-Dichloro-4′-(cyclopropylsulfonyl)-[1,1′-biphenyl]-4-yl)-2-(4-(ethylsulfonyl)phenyl)-3-methoxypropionamide] | 6.74 | 85.6% | 7.56 | 202% | 4.51** mL/min/kg | 3.66 µg·h/mL | 1.17 µg/mL | 3.88 h | 1.1 L/kg | 56.3% | 10.3 µg·h/mL | 1.42 µg/mL | 3.3 h |  |  |
| CCS(=O)(=O)c1ccc(-c2c(Cl)cc(NC(=O)Cc3ccc(S(C)(=O)=O)cc3)cc2Cl)cc1 [Example 4, N-(2,6-Dichloro-4′-(ethylsulfonyl)-[1,1′-biphenyl]-4-yl)-2-(4-(methylsulfonyl)phenyl)acetamide] | 7.77 | 64% | 7.52 | 152% |  |  |  |  |  |  |  |  |  |  |  |
| CCS(=O)(=O)c1ccc(-c2c(Cl)cc(NC(=O)Cc3ccc(S(=O)(=O)CC)cn3)cc2Cl)cc1 [Example 5, N-(2,6-Dichloro-4′-(ethylsulfonyl)-[1,1′-biphenyl]-4-yl)-2-(5-(ethylsulfonyl)pyridin-2-yl)acetamide] | 7.43 | 69.6% | 7.48 | 123% |  | 0.73 µg·h/mL | 1.36 µg/mL | 0.45 h |  | 38.8% | 1.42 µg·h/mL | 1.77 µg/mL | 0.5 h | 1367 mL/h/kg | 0.893 L/kg |
| CCS(=O)(=O)c1ccc(-c2c(Cl)cc(NC(=O)C(COC)c3ccc(S(=O)(=O)CC)cc3)cc2Cl)cc1 (stereo not shown) [Example 13, N-(2,6-Dichloro-4′-(ethylsulfonyl)-[1,1′-biphenyl]-4-yl)-2-(4-(ethylsulfonyl)phenyl)-3-methoxypropionamide] | 7.16 | 71.9% | 8.21 | 139% |  | 0.786 µg·h/mL | 1.32 µg/mL | 0.63 h |  | 24.2% | 0.952 µg·h/mL | 1.22 µg/mL | 0.54 h | 1264.7 mL/h/kg | 0.713 L/kg |
| COCC(C(=O)Nc1cc(Cl)c(-c2ccc(S(=O)(=O)C3CC3)cc2)c(Cl)c1)c1ccc(S(C)(=O)=O)cc1 (stereo not shown) [Example 20, N-(2,6-Dichloro-4′-(cyclopropylsulfonyl)-[1,1′-biphenyl]-4-yl)-3-methoxy-2-(4-(methylsulfonyl)phenyl)propionamide] | 7.09 | 63.5% | 7.72 | 228% | 1.98** mL/min/kg | 8.28 µg·h/mL | 1.16 µg/mL | 4.85 h | 0.75 L/kg | 57.3% | 21.6 µg·h/mL | 1.66 µg/mL | 6.95 h |  |  |
| CS(=O)(=O)c1ccc(CC(=O)Nc2cc(Cl)c(-c3ccc(S(=O)(=O)C4CC4)cc3)c(Cl)c2)cc1 [Example 11, N-(2,6-Dichloro-4′-(cyclopropylsulfonyl)-[1,1′-biphenyl]-4-yl)-2-(4-(methylsulfonyl)phenyl)acetamide] | 7.82 | 45% | 7.28 | 149% |  | 7.25 µg·h/mL | 0.709 µg/mL | 6.33 h |  | 86.1% | 31.2 µg·h/mL | 3.81 µg/mL | 4.52 h | 128.6 mL/h/kg | 1.04 L/kg |
| COCC(C(=O)Nc1ccc(-c2ccc(S(=O)(=O)C3CC3)cc2)c(C(F)(F)F)c1)c1ccc(S(C)(=O)=O)cc1 (single isomer, unassigned) [Example 43, (S)—N-(4′-(cyclopropylsulfonyl)-2-(trifluoromethyl)-[1,1′-biphenyl]-4-yl)-3-methoxy-2-(4-(methylsulfonyl)phenyl)propionamide or (R)—N-(4′-(cyclopropylsulfonyl)-2-(trifluoromethyl)-[1,1′-biphenyl]-4-yl)-3-methoxy-2-(4-(methylsulfonyl)phenyl)propanamide] | 7.24 | 64.1% | 6.87 | 265% | 4.31** mL/min/kg | 3.81 µg·h/mL | 0.787 µg/mL | 4.14 h | 1.38 L/kg | 89.1% | 17.1 µg·h/mL | 3.04 µg/mL | 3.51 h |  |  |
| CCS(=O)(=O)c1ccc(CC(=O)Nc2cc(Cl)c(-c3ccc(S(C)(=O)=O)cc3)c(Cl)c2)cc1 [Example 2, N-(2,6-dichloro-4′-(methylsulfonyl)-[1,1′-biphenyl]-4-yl)-2-(4-(ethylsulfonyl)phenyl)acetamide] | 7.72 | 43% | 7.21 | 138% |  | 2.25 µg·h/mL | 0.737 µg/mL | 1.76 h |  | 112% | 12.6 µg·h/mL | 3.03 µg/mL | 2.46 h | 426.2 mL/h/kg | 1.09 L/kg |
| CCS(=O)(=O)c1ccc(-c2c(Cl)cc(NC(=O)Cc3ccc(S(C)(=O)=O)cn3)cc2Cl)cc1 [Example 9, N-(2,6-Dichloro-4′-(ethylsulfonyl)-[1,1′-biphenyl]-4-yl)-2-(5-(methylsulfonyl)pyridin-2-yl)acetamide] | 7.28 | 51.5% | 6.44 | 167% |  |  |  |  |  |  |  |  |  |  |  |
| CCS(=O)(=O)c1ccc(CC(=O)Nc2cc(Cl)c(-c3ccc(S(C)(=O)=O)cc3)c(Cl)c2)nc1 [Example 8, N-(2,6-Dichloro-4′-(methylsulfonyl)-[1,1′-biphenyl]-4-yl)-2-(5-(ethylsulfonyl)pyridin-2-yl)acetamide] | 7.36 | 37.9% | 6.46 | 129% |  |  |  |  |  |  |  |  |  |  |  |
